# In patent US8883135B2, “Crystalline form of a pyridyl-piperazinyl hepatitis C virus inhibitor” (Theravance Biopharma R&D IP, LLC, priority 2012, dated 2014):
# Key:
# [1] = Dynamic Moisture Sorption Assessment; type: physicochemical; details: for deliquescence: exposed to up to about 90% relative humidity at room temperature; for change in solid form (powder diffraction pattern) after two sorption/desorption cycles: two DMS cycles, PXRD compared with the starting material
# Protocol: Dynamic moisture sorption (DMS) measurements were performed for each crystalline form using a VTI atmospheric microbalance, SGA-100 system (VTI Corp., Hialeah, Fla. 33016). A weighed sample was used and the humidity was lowest possible value (close to 0% RH) at the start of the analysis. […] The DMS run was performed isothermally at 25° C.
# [2] = system: HCV genotype 1a replicon cell line (Huh7.5 cell background); test: HCV Genotype 1a Replicon Assay; type: cell-based; details: Hepatitis C virus, NS3-specific protease activity in lysates, 48 or 72 hours incubation
# Protocol: The HCV genotype 1a replicon cell line was obtained from Apath LLC (APC89; Huh7.5 cell background). This subgenomic replicon contains the N-terminus of the HCV core protein fused to the neomycin-resistance selectable marker. The EMCV IRES lies downstream and drives expression of the non-structural proteins NS3-NS5B. Compound potencies were determined using the NS3-specific protease activity in lysates as a measurement of compound inhibition of replicon levels.
# Cells were grown at 37° C. in a 5% CO2 humidified incubator in DMEM (Invitrogen) with 10% FBS (HyClone), 1×NEAA (Invitrogen), 1× Pen-Strep (Invitrogen), and 850 μg/mL G418 (Invitrogen). On day 1 of the assay, cells were plated at 15,000 cells/well in black 96-well tissue culture plates (Costar) in 200 μL media lacking G418. […]
# To determine the NS3-specific protease activity in lysates, the cells were lysed at room temperature in 50 μL/well of 50 mM Hepes pH 7.5, 150 mM NaCl, 15% Glycerol, 0.15% Triton X-100, 10 mM DTT for 20 minutes with shaking. […] Protease activity was determined by measuring fluorescence (Excitation: 340 nm; Emission: 509 nm).
# To analyze the data, the fluorescence was plotted vs. the compound concentration, and EC50 values were determined from a 4-parameter robust fit model using GraphPad Prism software.
# [3] = system: HCV replicon resistant mutants: genotype 1b L31V and Y93H; genotype 1a Q30R and L31V; test: Replicon Assays Against Resistant Mutants (stably transfected Huh7 cells); type: cell-based; details: Hepatitis C virus, Huh-7, read-out: pEC50 (converted)
# Protocol: To create replicon cells with resistant mutations of interest, the mutation was first introduced into the parental plasmid by site-directed mutagenesis. Mutations in genotype 1b included L31V and Y93H. Mutations in genotype 1a included Q30R and L31V. The replicon plasmid was then linearized and in vitro transcribed to RNA. The RNA was used to stably transfect Huh7 cells by electroporation, and new cell lines were selected with 500 μg/mL G418. Potencies of test compounds against these mutant cell lines were determined as previously described above for the HCV Genotype 1b and 1a replicon assays.
# [4] = system: HCV replicon mutants genotype 1a Y93H, M28T, and Q30E; test: Replicon assays against resistant mutants (transient transfection, Huh-LUNET cells); type: cell-based; details: Hepatitis C virus, read-out: pEC50 (converted)
# Protocol: Potencies of test compounds against additional mutations of interest were determined using transient transfection assays. These mutants included genotype 1a Y93H, M28T, and Q30E. The mutation was first introduced into the parental plasmid by site-directed mutagenesis. The replicon plasmid was then linearized and in vitro transcribed to RNA. The RNA was used to transiently transfect Huh-LUNET cells (obtained from ReBLikon GmbH, Schriesheim, Germany) by electroporation, and the potencies of test compounds against the mutants were determined as previously described.
# [5] = system: HCV genotype 1b replicon cell line (Huh7 cell background); test: HCV Genotype 1b Replicon Assay; type: cell-based; details: Hepatitis C virus, Huh-7, luciferase activity readout, 48 hours incubation
# Description: The HCV genotype 1b replicon cell line was obtained from Apath LLC (Brooklyn, N.Y.) (APC144; Huh7 cell background). This subgenomic replicon contains the N-terminus of the HCV core protein fused to the neomycin-resistance selectable marker. The EMCV IRES lies downstream and drives expression of humanized Renilla luciferase fused to the non-structural proteins NS3-NS5B. This cell line was used to determine compound potency using the luciferase activity readout as a measurement of compound inhibition of replicon levels.
# Cells were grown at 37° C. in a 5% CO2 humidified incubator in DMEM (Invitrogen) with 10% FBS (HyClone), 1×NEAA (Invitrogen), 1× Pen-Strep (Invitrogen), and 500 μg/mL G418 (Invitrogen). On day 1 of the assay, cells were plated at 10,000 cells/well in white 96-well tissue culture plates (Costar) in 200 μL media lacking G418. […] At the end of the incubation period, media and compound were removed from the plates and the luciferase activity was determined using Promega Renilla-Glo reagents.
# To analyze the data, the luciferase activity was plotted vs. the compound concentration, and EC50 values were determined from a 4-parameter robust fit model with the GraphPad Prism software package (GraphPad Software, Inc., San Diego, Calif.). Results are expressed as the negative decadic logarithm of the EC50 value, pEC50. […]
# [6] = humidity range of 2% to 90% relative humidity at room temperature
Compound,weight gain (dynamic moisture sorption) ([1]; at 90% relative humidity during the initial adsorption segment),deliquescence [1],change in solid form (powder diffraction pattern) after two sorption/desorption cycles [1],"weight gain (dynamic moisture sorption) [1, 6]",EC50 [2],EC50 [3],EC50 [4],EC50 [5],"weight gain (dynamic moisture sorption) ([1]; humidity range of 2% to 90% relative humidity at room temperature, listed as Crystalline compound 1)"
"CNC(=O)N1C[C@@H](C)N(c2ccc(C(=O)Nc3ccc(-c4ccc(-c5c[nH]c([C@@H]6CCCN6C(=O)[C@@H](NC(=O)OC)C(C)C)n5)cc4)c(OC(F)(F)F)c3)cn2)C[C@@H]1C.Cl.Cl.O [monohydrate form, Crystalline ((S)-1-{(S)-2-[4-(4′-{[6-((2R,5S)-2,5-Dimethyl-4-methylcarbamoyl-piperazin-1-yl)-pyridine-3-carbonyl]-amino}-2′-trifluoromethoxy-biphenyl-4-yl)-1H-imidazol-2-yl]-pyrrolidine-1-carbonyl}-2-methyl-propyl)-carbamic acid methyl ester dihydrochloride Monohydrate Form]",about 2%,neither crystalline compound 1 nor the anhydrous and hydrate forms of the crystalline dihydrochloride salt of compound 1 is deliquescent,no change in form,,,,,,
"Crystalline ((S)-1-{(S)-2-[4-(4′-{[6-((2R,5S)-2,5-Dimethyl-4-methylcarbamoyl-piperazin-1-yl)-pyridine-3-carbonyl]-amino}-2′-trifluoromethoxy-biphenyl-4-yl)-1H-imidazol-2-yl]-pyrrolidine-1-carbonyl}-2-methyl-propyl)-carbamic acid methyl ester dihydrochloride Anhydrous Form [anhydrous dihydrochloride salt]",,neither crystalline compound 1 nor the anhydrous and hydrate forms of the crystalline dihydrochloride salt of compound 1 is deliquescent,no change in form,about 0.8%,,,,,
"CNC(=O)N1C[C@@H](C)N(c2ccc(C(=O)Nc3ccc(-c4ccc(-c5c[nH]c([C@@H]6CCCN6C(=O)[C@@H](NC(=O)OC)C(C)C)n5)cc4)c(OC(F)(F)F)c3)cn2)C[C@@H]1C [Compound 1, ((S)-1-{(S)-2-[4-(4′-{[6-((2R,5S)-2,5-dimethyl-4-methylcarbamoyl-piperazin-1-yl)-pyridine-3-carbonyl]-amino}-2′-trifluoromethoxy-biphenyl-4-yl)-1H-imidazol-2-yl]-pyrrolidine-1-carbonyl}-2-methyl-propyl)-carbamic acid methyl ester]",,,,,≤ 0.1 nM,≤ 10 nM,≤ 10 nM,≤ 0.01 nM,
"CNC(=O)N1C[C@@H](C)N(c2ccc(C(=O)Nc3ccc(-c4ccc(-c5c[nH]c([C@@H]6CCCN6C(=O)[C@@H](NC(=O)OC)C(C)C)n5)cc4)c(OC(F)(F)F)c3)cn2)C[C@@H]1C [crystalline compound 1, Crystalline ((S)-1-{(S)-2-[4-(4′-{[6-((2R,5S)-2,5-Dimethyl-4-methylcarbamoyl-piperazin-1-yl)-pyridine-3-carbonyl]-amino}-2′-trifluoromethoxy-biphenyl-4-yl)-1H-imidazol-2-yl]-pyrrolidine-1-carbonyl}-2-methyl-propyl)-carbamic acid methyl ester]",,neither crystalline compound 1 nor the anhydrous and hydrate forms of the crystalline dihydrochloride salt of compound 1 is deliquescent,no change in form,about 3%,,,,,≤ 3%
